Structures are written as SMILES.

The target in one assay is T1, HDAC1 (Homo sapiens, UniProt Q13547).
T1 construct: Reaction Biology Corporation (ran the assay as a service)
The assay is described as follows: HDAC enzymes inhibition assay (Reaction Biology), HDAC1. The assay is classed as biochemical. The note with it: 10-dose, 3-fold dilution from 10 μM, single experiment.

A further assay addresses T2, HDAC6 (Homo sapiens, UniProt Q9UBN7).
T2 construct: Reaction Biology Corporation (ran the assay as a service)
T2 sequence (Q9UBN7 1-1215): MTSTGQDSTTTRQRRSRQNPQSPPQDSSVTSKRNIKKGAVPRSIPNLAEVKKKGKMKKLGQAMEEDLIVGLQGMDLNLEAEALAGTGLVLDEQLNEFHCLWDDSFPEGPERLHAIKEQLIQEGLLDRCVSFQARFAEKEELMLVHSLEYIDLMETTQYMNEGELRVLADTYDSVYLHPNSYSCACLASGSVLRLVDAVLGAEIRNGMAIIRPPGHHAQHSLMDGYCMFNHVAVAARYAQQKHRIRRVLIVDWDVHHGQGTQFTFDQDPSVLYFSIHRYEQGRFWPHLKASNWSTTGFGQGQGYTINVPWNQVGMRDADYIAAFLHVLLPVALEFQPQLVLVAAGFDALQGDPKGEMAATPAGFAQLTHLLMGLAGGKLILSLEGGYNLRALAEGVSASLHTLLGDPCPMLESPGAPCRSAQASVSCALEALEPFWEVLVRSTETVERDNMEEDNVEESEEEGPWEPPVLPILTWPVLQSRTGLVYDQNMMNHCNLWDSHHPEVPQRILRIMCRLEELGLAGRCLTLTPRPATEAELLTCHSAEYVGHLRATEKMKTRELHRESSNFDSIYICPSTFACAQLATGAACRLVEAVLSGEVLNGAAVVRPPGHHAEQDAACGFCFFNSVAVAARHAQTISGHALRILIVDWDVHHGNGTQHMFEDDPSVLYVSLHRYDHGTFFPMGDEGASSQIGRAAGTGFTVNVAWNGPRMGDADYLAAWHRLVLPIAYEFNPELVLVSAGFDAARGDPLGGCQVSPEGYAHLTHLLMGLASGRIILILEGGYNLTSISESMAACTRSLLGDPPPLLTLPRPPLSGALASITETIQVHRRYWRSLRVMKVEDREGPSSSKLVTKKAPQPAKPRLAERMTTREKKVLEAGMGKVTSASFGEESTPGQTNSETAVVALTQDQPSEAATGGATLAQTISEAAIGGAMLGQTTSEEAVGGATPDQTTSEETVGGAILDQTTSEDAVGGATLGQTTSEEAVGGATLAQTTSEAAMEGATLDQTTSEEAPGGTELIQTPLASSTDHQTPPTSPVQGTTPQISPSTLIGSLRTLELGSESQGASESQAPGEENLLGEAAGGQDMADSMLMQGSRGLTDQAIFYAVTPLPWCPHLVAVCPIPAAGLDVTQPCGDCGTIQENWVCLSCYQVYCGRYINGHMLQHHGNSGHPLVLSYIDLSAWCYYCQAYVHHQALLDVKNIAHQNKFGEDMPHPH
The assay is described as follows: HDAC enzymes inhibition assay (Reaction Biology), HDAC6. The format is biochemical. The note with it: 10-dose, 3-fold dilution from 10 μM, single experiment.

Assay [1] concerns human colon normal epithelial cells (CCD841CON). Kind of assay: MTT cytotoxicity to normal cells, CCD841CON. The assay is classed as cell-based. The note with it: CCD-841CoN, 48 hours, read-out: IC50, proliferation of CCD841CON. The method, then: FIGS. 3A and 3B show the effects of Compound 75 on cytotoxicity to normal cell lines. Cells were treated with DMSO or different concentrations of Compound 75 for 48 hours and cell viability was assessed by MTT assay. […] Data are expressed as mean t S.D. N values greater than 3. * P<0.05; ** P<0.01; *** P<0.001, compared with the control group.
The effects on cell viability of the HSP90/HDAC6 dual inhibitors as described in Synthesis Examples (such as Compounds 63, 64, and 66 to 76) were evaluated. Cells were seeded in 96-well plates (5000 cells/well). The next day, the serially diluted drugs were added into the wells and incubated at 37° C. for 48 h. Cell viability was measured by the MTT assay and is expressed as percentages of surviving drug-treated cells relative to untreated control cells. The IC50 was calculated by non-linear regression analysis.
The cytotoxicity to normal cells of Compound 75 was evaluated.

The subject of assay [2] is PD-L1 and IDO expression in tumor region (CT26). The assay is described as follows: IHC of PD-L1 and IDO in CT26 tumor region. The note with it: CT26 tumors, day 25, IHC, 10, 25, 50 mg/kg. The format is in vivo, mouse. The method, then: The tumors were removed and immunohistochemically stained at 25 days after intravenous tail injection in mice with colorectal cancer tumors. […] Bar, SD.
The effects of the HSP90/HDAC6 dual inhibitors as described in Synthesis Examples (such as Compounds 63, 64, and 66 to 76) on several factors were evaluated. IHC-Paraffin: Tumor tissues were excised from the mice, fixed in 4% formaldehyde solution in PBS, and embedded in paraffin. Sections of 4-5 μm were cut and placed in an oven at 60° C. for overnight. After deparaffinizing and rehydrating the section, the antigen retrieval was performed with citrate buffer (10 mM citrate acid, pH 6) or Tris buffer (10 mM Tris, 1 mM EDTA, pH9) by autoclave for 30 min at 121 C. The sections were blocked with 10% goat serum and then incubated with primary antibodies against the following antigens: IDO (Santa Cruz Biotechnology Dallas, TX, USA), CD8 (Novus, Littleton, CO, USA) and granzyme B (Abcam, Cambridge, UK) at 4 C for overnight. IHC— Frozen for PD-L1: Tumor tissues were collected from the mice, embedded in OCT compound (Sakura Finetek, Torrance, CA, U.S.A.). […] Images of the tumor tissues sections were captured by Mirax Scan (CARL ZEISS, Germany) or TissueFAXS (Vienna, Austria) and analyzed by HistoQuest software (Vienna, Austria).
Compound 75 was evaluated to determine its ability to reduce PD-L1 and IDO in the tumor microenvironment.

T1 sequence (Q13547 whole entry): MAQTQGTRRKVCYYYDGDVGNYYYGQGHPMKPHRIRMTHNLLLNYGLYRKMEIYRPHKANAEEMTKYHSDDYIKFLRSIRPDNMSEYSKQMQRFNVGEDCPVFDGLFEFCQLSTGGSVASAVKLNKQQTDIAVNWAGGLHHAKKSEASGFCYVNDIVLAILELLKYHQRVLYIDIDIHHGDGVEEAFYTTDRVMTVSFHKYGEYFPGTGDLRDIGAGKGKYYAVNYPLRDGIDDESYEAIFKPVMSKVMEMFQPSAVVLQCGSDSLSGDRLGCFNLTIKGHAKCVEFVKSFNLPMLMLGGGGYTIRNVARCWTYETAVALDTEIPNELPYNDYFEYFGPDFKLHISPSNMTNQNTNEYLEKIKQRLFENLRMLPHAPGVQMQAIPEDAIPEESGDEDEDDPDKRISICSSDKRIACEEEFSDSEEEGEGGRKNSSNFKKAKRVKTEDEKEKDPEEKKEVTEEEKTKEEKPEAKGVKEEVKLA

Regarding `COc1ccc(N(Cc2ccc(C(=O)NO)cc2)C(=O)c2cc(C(C)C)c(O)cc2O)cc1` [Compound 75, 2,4-Dihydroxy-N-(4-hydroxycarbamoyl-benzyl)-5-isopropyl-N-(4-methoxy-phenyl)-benzamide], the IC50 was 0.616 µM at HDAC1, 0.00456 µM at HDAC6 and greater than 20 µM in assay [1]. Moreover, in assay [2], the “PD-L1 and IDO expressions in the tumor region” value was “reduces PD-L1 and IDO expressions”.
